Laboratory results published in US20250206718A1, “NITROGEN-CONTAINING HETEROCYCLIC DERIVATIVE INHIBITOR, PREPARATION METHOD THEREFOR AND USE THEREOF” (SHANGHAI HANSOH BIOMEDICAL CO., LTD., priority 2022, published 2025).

Columns and labels:
[1] = biological target: Ba/F3 EGFR L858R/T790M/C797S cells (Homo sapiens, UniProt P00533, T790M/C797S/L858R, cells depend on it); assay: Cell proliferation inhibition (Cell Titer-Glo), Ba/F3 EGFR L858R/T790M/C797S; assay type: cell-based, mouse; settings: 72 hours, CellTiter-Glo, read-out: Ba/F3 EGFR L858R_T790M_C797S IC50
Sequence of Ba/F3 EGFR L858R/T790M/C797S cells (P00533 whole entry T790M/C797S/L858R): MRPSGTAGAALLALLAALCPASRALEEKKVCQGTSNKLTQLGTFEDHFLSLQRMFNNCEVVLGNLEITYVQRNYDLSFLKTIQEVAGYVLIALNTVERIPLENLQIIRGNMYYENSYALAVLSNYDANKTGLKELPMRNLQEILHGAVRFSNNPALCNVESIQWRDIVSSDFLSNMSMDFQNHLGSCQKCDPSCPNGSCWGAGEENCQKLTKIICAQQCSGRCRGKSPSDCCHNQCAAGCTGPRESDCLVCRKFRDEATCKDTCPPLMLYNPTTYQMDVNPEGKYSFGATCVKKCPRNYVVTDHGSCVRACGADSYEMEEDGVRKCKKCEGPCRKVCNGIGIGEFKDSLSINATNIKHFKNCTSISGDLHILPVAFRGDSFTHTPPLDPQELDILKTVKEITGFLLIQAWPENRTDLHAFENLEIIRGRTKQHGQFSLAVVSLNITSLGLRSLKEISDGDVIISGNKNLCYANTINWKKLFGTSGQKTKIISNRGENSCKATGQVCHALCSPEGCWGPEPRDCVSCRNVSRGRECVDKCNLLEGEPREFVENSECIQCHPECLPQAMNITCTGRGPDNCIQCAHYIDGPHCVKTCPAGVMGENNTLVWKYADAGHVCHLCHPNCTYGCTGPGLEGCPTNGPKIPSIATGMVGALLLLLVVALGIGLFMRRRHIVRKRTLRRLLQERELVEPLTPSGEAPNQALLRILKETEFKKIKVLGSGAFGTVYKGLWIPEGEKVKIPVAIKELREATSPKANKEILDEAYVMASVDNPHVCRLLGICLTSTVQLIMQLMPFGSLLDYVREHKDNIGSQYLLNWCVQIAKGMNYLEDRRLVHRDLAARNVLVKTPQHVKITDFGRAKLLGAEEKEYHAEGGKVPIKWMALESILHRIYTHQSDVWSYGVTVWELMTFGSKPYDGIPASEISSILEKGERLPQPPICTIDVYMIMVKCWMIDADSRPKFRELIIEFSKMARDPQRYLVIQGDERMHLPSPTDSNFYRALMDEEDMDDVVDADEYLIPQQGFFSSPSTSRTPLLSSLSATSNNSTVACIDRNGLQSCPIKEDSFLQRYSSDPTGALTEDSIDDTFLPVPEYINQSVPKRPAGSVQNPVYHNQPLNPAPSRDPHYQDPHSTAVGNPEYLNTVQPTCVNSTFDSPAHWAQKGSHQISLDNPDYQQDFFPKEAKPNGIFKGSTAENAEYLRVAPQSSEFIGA
Excerpt: (§1) Experimental objective: The objective of this test example is to test the inhibitory activity of compounds on the proliferation of different EGFR C797S drug-resistant mutant cell lines Ba/F3 EGFR Del19/T790M/C797S, Ba/F3 EGFR L858R/T790M/C797S, and Ba/F3 EGFR Del19/C797S.
(§2) • Ba/F3 EGFR Del19/T790M/C797S cells were purchased from KYinno Biotechnology Co., Ltd.; • Ba/F3 EGFR Del19/C797S cells were purchased from CoBioer Biosciences Co., Ltd.; • Ba/F3 EGFR L858R/T790M/C797S cells were purchased from CoBioer Biosciences Co., Ltd.; • Cell Titer-Glo was purchased from Promega, with a catalog number of G7573; • RPMI 1640 was purchased from Gibco, with a catalog number of 22400089; • FBS was purchased from Gibco, with a catalog number of 10091148; • cell culture plates were purchased from Corning, with a catalog number of 3610.
(§3) The inhibitory activity of the compound on the proliferation of different EGFR C797S drug-resistant mutant cell lines was detected using the Cell Titer-Glo method. The different cell lines were cultured in RPMI 1640 complete culture medium containing 10% FBS under conditions of 37° C. and 5% CO2, the cells were collected by centrifugation when growing to a certain density, and adjusted to appropriate cell density after counting, the cells were spread on a white 96-well plate at 90 μL/well, and cultured in a 37° C., 5% CO2 incubator overnight, prepared compound solutions of different concentrations were added at 10 μL/well, corresponding solvent controls were set, and all wells were cultured in a 37° C., 5% CO2 incubator for 72 hours, 50 μL of CellTiter-Glo solution was added to each well, shook and mixed evenly, and incubated in the dark for 10 minutes, and a BioTek Synergy H1 microplate reader was used for reading.
(§4) The luminescence signal value was used to calculate the inhibition rate. Graphpad Prism software was used to fit the concentration and inhibition rate to a nonlinear regression curve, so as to obtain the IC50 value, as shown in the Table below for details.

[2] = biological target: Ba/F3 EGFR Del19/C797S cells (Homo sapiens, UniProt P00533, C797S, cells depend on it, form not given); assay: Cell proliferation inhibition (Cell Titer-Glo), Ba/F3 EGFR Del19/C797S; assay type: cell-based, mouse; settings: 72 hours, CellTiter-Glo, read-out: Ba/F3 EGFR Del19/C797S IC50
Sequence of Ba/F3 EGFR Del19/C797S cells (P00533 with tags, fused parts or gaps DEL746-750/C797S, form open): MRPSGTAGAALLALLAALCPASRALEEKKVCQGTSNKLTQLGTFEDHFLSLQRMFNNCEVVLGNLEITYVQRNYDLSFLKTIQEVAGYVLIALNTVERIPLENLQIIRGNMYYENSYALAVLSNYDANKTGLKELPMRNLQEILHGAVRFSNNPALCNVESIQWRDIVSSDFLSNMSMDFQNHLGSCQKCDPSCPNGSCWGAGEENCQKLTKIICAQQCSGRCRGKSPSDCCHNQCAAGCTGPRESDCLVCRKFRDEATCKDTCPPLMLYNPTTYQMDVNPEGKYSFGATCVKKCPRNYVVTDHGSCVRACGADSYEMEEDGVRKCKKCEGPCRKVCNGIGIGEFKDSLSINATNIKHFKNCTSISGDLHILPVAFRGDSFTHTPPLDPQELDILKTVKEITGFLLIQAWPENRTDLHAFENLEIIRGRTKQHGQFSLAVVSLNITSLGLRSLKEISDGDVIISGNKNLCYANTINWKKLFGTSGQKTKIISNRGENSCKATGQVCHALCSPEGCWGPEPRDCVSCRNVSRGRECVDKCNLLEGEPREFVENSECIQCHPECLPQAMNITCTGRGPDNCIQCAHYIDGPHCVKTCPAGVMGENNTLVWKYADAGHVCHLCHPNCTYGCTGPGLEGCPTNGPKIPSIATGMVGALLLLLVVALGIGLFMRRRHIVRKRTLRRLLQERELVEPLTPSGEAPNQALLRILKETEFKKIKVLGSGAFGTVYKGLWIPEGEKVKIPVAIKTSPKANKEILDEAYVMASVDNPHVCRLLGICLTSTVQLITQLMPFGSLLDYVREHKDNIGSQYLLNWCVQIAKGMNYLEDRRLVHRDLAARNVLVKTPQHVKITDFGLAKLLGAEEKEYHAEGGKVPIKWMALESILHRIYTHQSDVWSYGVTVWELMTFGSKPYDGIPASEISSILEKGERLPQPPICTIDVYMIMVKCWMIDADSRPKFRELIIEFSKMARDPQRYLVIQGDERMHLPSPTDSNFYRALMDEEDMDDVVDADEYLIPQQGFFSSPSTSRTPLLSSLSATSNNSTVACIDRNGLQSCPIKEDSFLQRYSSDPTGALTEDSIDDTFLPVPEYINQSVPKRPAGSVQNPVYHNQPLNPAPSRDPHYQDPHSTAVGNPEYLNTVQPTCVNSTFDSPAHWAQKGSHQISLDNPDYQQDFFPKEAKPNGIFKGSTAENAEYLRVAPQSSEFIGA
Outline: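 Ba/F3 lines carrying the EGFR mutants, grown in RPMI 1640 with 10% FBS, were seeded overnight then exposed to compound for 72 h at 37 °C, 5% CO2. Viability by CellTiter-Glo luminescence; IC50 from nonlinear regression of inhibition versus concentration.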

[3] = biological target: Ba/F3 EGFR Del19/T790M/C797S cells (Homo sapiens, UniProt P00533, T790M/C797S, cells depend on it, form not given); assay: Cell proliferation inhibition (Cell Titer-Glo), Ba/F3 EGFR Del19/T790M/C797S; assay type: cell-based, mouse; settings: 72 hours, CellTiter-Glo, read-out: Ba/F3 EGFR Del19_T790M_C797S IC50
Sequence of Ba/F3 EGFR Del19/T790M/C797S cells (P00533 with tags, fused parts or gaps DEL746-750/T790M/C797S, form open): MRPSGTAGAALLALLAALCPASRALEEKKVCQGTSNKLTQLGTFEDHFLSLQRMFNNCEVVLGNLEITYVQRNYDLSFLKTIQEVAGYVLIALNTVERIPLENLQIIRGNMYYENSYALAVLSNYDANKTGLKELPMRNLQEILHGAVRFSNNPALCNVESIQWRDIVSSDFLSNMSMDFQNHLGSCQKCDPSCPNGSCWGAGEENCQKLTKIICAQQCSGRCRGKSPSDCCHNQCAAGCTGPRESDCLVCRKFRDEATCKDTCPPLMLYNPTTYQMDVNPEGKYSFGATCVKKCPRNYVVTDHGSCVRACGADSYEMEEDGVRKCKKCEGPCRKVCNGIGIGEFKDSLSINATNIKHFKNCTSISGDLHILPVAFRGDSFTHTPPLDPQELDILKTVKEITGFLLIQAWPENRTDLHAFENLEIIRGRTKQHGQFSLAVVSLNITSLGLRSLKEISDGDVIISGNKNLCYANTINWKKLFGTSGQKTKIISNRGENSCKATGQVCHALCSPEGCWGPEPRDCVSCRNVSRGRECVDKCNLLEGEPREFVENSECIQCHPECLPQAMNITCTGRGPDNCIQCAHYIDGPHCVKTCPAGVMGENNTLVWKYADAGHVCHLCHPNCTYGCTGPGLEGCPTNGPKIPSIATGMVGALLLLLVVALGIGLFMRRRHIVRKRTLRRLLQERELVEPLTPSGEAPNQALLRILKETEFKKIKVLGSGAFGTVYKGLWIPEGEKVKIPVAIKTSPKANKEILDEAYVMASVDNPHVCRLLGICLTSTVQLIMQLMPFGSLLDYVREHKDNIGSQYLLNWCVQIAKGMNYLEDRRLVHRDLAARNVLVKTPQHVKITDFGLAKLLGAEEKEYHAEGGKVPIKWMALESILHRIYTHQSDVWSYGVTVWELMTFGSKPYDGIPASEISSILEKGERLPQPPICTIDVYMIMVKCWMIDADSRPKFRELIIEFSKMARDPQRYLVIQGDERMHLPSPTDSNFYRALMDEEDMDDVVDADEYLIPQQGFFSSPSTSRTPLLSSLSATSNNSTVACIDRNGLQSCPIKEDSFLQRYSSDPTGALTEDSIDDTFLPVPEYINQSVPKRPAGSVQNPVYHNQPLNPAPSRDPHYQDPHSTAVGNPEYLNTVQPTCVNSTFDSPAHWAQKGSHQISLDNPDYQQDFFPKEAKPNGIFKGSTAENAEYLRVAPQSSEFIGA
Excerpt: as §1, §2, §3, §4

[4] = Rat pharmacokinetic evaluation test; assay type: in vivo; settings: Sprague-Dawley (SD), po, SD rats, male, p.o. 5 mg/kg, plasma
Method: SD rats were used as test animals to study the pharmacokinetic behavior of the compounds of the present invention in the rat body (plasma) after oral administration at a dose of 5 mg/kg.
2.2 Experimental Animals: 3 SD Rats/Group, Male, from Shanghai Jiesijie Experimental Animal Co., Ltd., Animal Production License Number (SCXK (Shanghai) 2013-0006 No. 311620400001794).
• Oral administration drug preparation: 20% solutol HS15 in 0.5% MC (methylcellulose)
20 g of a Solutol HS15 solid and 0.5 g of a MC solid powder were weighed and dissolved in 80 mL of purified water, and the mixture was vortexed, mixed until uniform, and subjected to ultrasound treatment to obtain a clear solution of 20% solutol HS15 in 0.5% MC.
The example compound was weighed into a 20 mL glass bottle, the solution was added thereto and the mixture was subjected to ultrasound treatment for 10 minutes to obtain a clear solution with a concentration of 0.5 mg/mL.
3 male SD rats were administered p.o. respectively after the 3 male SD rats were fasted overnight; the p.o. dose was 5 mg/kg and the administration volume was 10 mL/kg.
Blood collection: Before and after administration to rats, 0.2 mL of blood was collected from the jugular vein at 0.25, 0.5, 1, 2, 4, 6, 8 and 24 h, and placed in an EDTA-K2 anticoagulation tube, which was centrifuged at 6000 rpm at 4° C. for 6 min to separate plasma which was stored at −80° C.; the rats were fed 4 h after administration.
1) 160 μL of acetonitrile was added to 40 μL of plasma sample for precipitation, mixed and centrifuged at 3500×g for 5 to 20 min.
2) the treated supernatant solution was taken and subjected to LC/MS/MS to analyze the concentrations of the test compounds. LC/MS/MS analysis instrument: AB Sciex API 4000 Qtrap.
• Liquid phase conditions: Shimadzu LC-20AD pump • Chromatographic column: Agilent ZORBAX XDB-C18 (50×2.1 mm, 3.5 μm) mobile phase: liquid A is 0.1% aqueous formic acid solution, liquid B is acetonitrile • Flow rate: 0.4 mL/min • Elution time: 0-4.0 min, the eluent is as follows:
The main pharmacokinetic parameters were calculated using WinNonlin 6.1.

SMILES	GI50 [1] [nM]	GI50 [2] [nM]	GI50 [3] [nM]	AUC(0-t) [4] [ng·h/mL]	Cmax [4] [ng/mL]	half-life [4] [h]
CC(C)c1ccc(N2C[C@H](N(C)S(C)(=O)=O)[C@H]2C)c2cnc(Nc3ccnc(-c4cn(C)nc4Cl)n3)cc12 [Example 122, N-((2R,3S)-1-(3-((2-(3-chloro-1-methyl-1H-pyrazol-4-yl)pyrimidin-4-yl)amino)-5-isopropylisoquinolin-8-yl)-2-methylazetidin-3-yl)-N-methyl methanesulfonamide]	8.2	5.1	2.9	1260	97	3.5
Cc1nn(C)cc1-c1nccc(Nc2cc3c(C(C)C)ccc(N4C[C@H](N(C)S(C)(=O)=O)[C@H]4C)c3cn2)n1 [Example 126, N-((2R,3S)-1-(3-((2-(1,3-dimethyl-1H-pyrazol-4-yl)pyrimidin-4-yl)amino)-5-isopropylisoquinolin-8-yl)-2-methylazetidin-3-yl)-N-methyl methanesulfonamide]	7.5	3	2.1	3140	240	3.3
CC(C)c1cnc(N2C[C@H](CS(C)(=O)=O)[C@H]2C)c2cnc(Nc3ccnc(-c4cn(C)nc4Cl)n3)cc12 [Example 132, N-(2-(3-chloro-1-methyl-1H-pyrazol-4-yl)pyrimidin-4-yl)-5-isopropyl-8-((2R,3S)-2-methyl-3-((methanesulfonyl)methyl)azetidin-1-yl)-2,7-diazanaphthalen-3-amine]	15	6.4	5.6	1570	180	3
